In patent US6331555A, “Treatment of platelet derived growth factor related disorders such as cancers” (priority 1999, dated 2001):
Entries after “also recorded” stand apart in the source; their conditions may differ.

Assays:
PDGF-R = PDGF-R autophosphorylation, T98G glioblastoma cells; format: cell-based, human; details: 200, 500, 1000 mM; 20 ng/ml PDGF-BB
Protocol: Proteins were then separated by SDS-polyacrylamide gel electrophoresis (PAGE). Proteins containing phosphorylated tyrosine were identified by western blotting with an anti-phosphotyrosine antibody. The level of phosphorylated tyrosine was determined by quantitating the amount of bound anti-phosphotyrosine. Quantitation was carried out by peak area integration using a Molecular Dynamics Computing Densitometer (Model 300S), and Image Quant v3.0 software (Molecule Dynamics). Data were expressed as relative peak.intensity (phosphorylation of a receptor divided by the total amount of phosphorylated tyrosine).
T98G cells were plated in MCDB105 medium containing 2% FBS and incubated for 24 hours at 37° C. […] The cells were then treated with ligand for 10 minutes (20 ng/ml PDGF-BB or 50 ng/ml EGF). The cells were lysed and the level of phosphorylated receptor was quantitated as described in Example 1.

[1] = system: NIH3T3 cells overexpressing the human EGF receptor; assay: EGF-stimulated mitosis, flow cytometry; format: cell-based, mouse; details: 100 mM A10
[2] = system: ovarian carcinoma primary tumor cells; assay: Growth of primary tumor cells from ovarian carcinoma patients; format: cell-based, human; parameters: tumor cell growth: dose or concentration left out as unconfirmed
Protocol: Viable tumors were placed into medium by the pathologist at the referring institution immediately after surgery, and shipped to Oncotech by overnight delivery. As soon as a tumor was received, a portion was fixed in formalin for sectioning and the remainder trimmed of necrotic, connective and adipose tissues. All tumor manipulations were performed aseptically. The remaining tumor was placed into a Petri dish containing 5 mL of medium (RPMI 1640 supplemented with 10% FBS, 100 IU/mL penicillin, […] streptomycin and L-glutamine) and disaggregated mechanically with scissors into pieces 2 mm or smaller. […]
After enzymatic dispersion into a near single-cell suspension, tumor cells were filtered through nylon mesh, washed in medium, suspended in soft agarose (0.12%) and plated at approximately 20,000 cells per well onto an agarose underlayer (0.4%) in 24-well plates. […] After the appropriate labeling period, tissue culture plates were heated at 60° C. to melt the agarose, the cells harvested with a micro-harvester onto glass fiber filters and the radioactivity determined. Percent inhibition (PCI) was determined using the formula: PCI=1-(CPM treatment group […] CPM control group). Determinations of control group proliferation were performed in quadruplicate, while treatment group proliferation was determined in triplicate. […]

D1B leukemia = assay: SC syngeneic leukemia model in mice; format: in vivo, murine; details: DBA/2, 20 mg/kg/day, day 22
Protocol: (§1) Cell lines were grown in appropriate medium (see Appendix 1). Cells were harvested at or near confluency with 0.05% Trypsin-EDTA and pelleted at 450×g for 10 min. Pellets were resuspended in sterile PBS or media (without FBS) to a particular concentration and the cells were implanted into the hindflank of mice. Tumor growth was measured over 3 to 6 weeks using venier calipers. Tumor volumes were calculated as a product of length×width×height unless otherwise indicated. P values were calculated using the Students' t-test.

[3] = Effects of A10 on mortality (mice implanted with C6 cells); format: in vivo, mouse; details: mouse, in vivo, ip
Protocol: as §1

[4] = system: mice implanted with C6 cells; assay: as above; format: in vivo, mouse
Protocol: as §1

WEHI-164.13 cells = assay: CTL generation in tumor-bearing mice (MLTC); format: in vivo, mouse; parameters: CTL activity: key to the marks not given beside the values; details: 20 mg/kg/day
Protocol: BALB/c mice received SC implants of syngeneic WEHI-164.13 fibrosarcoma cells on day 0. […] On day 17, the animals were sacrificed and their spleens were removed. The spleen cells were assayed in vitro for responses to alloantigens and mitogens.
The spleen cells were also assayed for the generation of WEHI-164.13-specific cytotoxic T-lymphocytes (CTL) in the mixed lymphocyte tumor cell culture (MLTC). Spleen cells from untreated tumor-bearing animals mounted a vigorous CTL response (44% specific lysis at E:T=50:1). This response was inhibited almost completely in animals receiving the vehicle alone (13% specific lysis). […] (Walia, et al., Proc. Soc. Exp. Biol. Med., 192:177-200, 1989.)

[5] = Ex vivo conversion of A10 to B11 in rat plasma
Protocol: (§2) Plasma was prepared and frozen in liquid nitrogen. Tissues and organs were resected and immediately frozen in liquid nitrogen. After the addition of an internal standard, plasma samples were acidified with HCl and extracted with acetonitrile. The acetonitrile fraction was evaporated to dryness in a vacuum centrifuge with heating and redissolved in methanol. Tissue and organ samples were homogenized according to the weight ratio of 1:5 (w:v) in 50 mM Tris-HCl, pH 7.4, at 20,000 rev/min, using a tissue homogenizer (Brinkmann Polytron Model PT3000). After the addition of an internal standard, the homogenate was acidified with HCl and then extracted with acetonitrile. The acetonitrile fraction was then extracted with an equal volume of diethyl ether. The ether fraction was evaporated to dryness in a vacuum centrifuge with heating and redissolved in methanol.
(§3) Samples for HPLC analysis were injected onto a Hewlett Packard Hypersil 5-μm C18 cartridge column (100×4.6 mm). The mobile phase was methanol:35 mM KH2 PO4 (pH 4.5) 55:45 containing 4 mM triethylamine. The flow rate was 1.2 mL/min. The compounds were monitored by UV absorption at 254 nm using a Hewlett-Packard diode-array detector (HP Model 1090). Plasma and tissue concentrations were determined from standard curves using peak area for quantitation. […]

[6] = format: in vivo, mouse; details: IP A10 40 mg/kg single dose
Protocol: as §2
as §3, with “The mobile phase was methanol:35 mM KH2 PO4 (pH 4.5) 55:45 containing 4 mM triethylamine. The flow rate was 1.2 mL/min.” left out
Table XXII. […] Plasma and brain samples were prepared and analyzed by HPLC as described in Appendix 6. All results were calculated by the method of internal standardization. NT= not tested, ND= not detected.

[7] = system: epidermal growth factor (EGF) receptor; details: listed as leflunomide; cited from earlier work

Q: With Cc1oncc1C(=O)Nc1ccc(C(F)(F)F)cc1 [Compound A10, 5-methylisoxazole-4 carboxylic acid-(4-trifluromethyl)-anilide] as the molecule, how does the “autophosphorylation of PDGF-R by PDGF” value (PDGF-R) read?
A: inhibited autophosphorylation of PDGF-R by PDGF

Q: What about the EGF-stimulated mitosis [1] of the same molecule?
A: not able to inhibit EGF-stimulated mitosis

Q: And the tumor cell growth [2]?
A: tumor cell growth decreased for both types of tumors

Q: And the IC50 ([2]; Homo sapiens, range over six patients, read-out: IC50, ovarian tumors)?
A: 20 to 140 µM

Q: And the “% Inhibition” value (D1B leukemia)?
A: 95%

Q: What about the mortality ([3]; 25 mg/kg/day (PBTE:D5W), 67 treatments, n 8) of the same molecule?
A: 0%

Q: And the mortality ([3]; 30 mg/kg/day (PBTE), 48 treatments, n 4)?
A: 50%

Q: What about the mortality ([3]; 40 mg/kg/day (PBTE), 48 treatments, n 4) of the same molecule?
A: 75%

Q: What about the mortality ([4]; 20 mg/kg/day (DMSO), 21 treatments, n 26) of the same molecule?
A: 54%

Q: And the mortality ([4]; 20 mg/kg/day (PBTE), 20-48 treatments, n 12)?
A: 8%

Q: What about the “mortality rate by formulation” value ([4]; PBTE:D5W compared to DMSO and PBTE) of the same molecule?
A: significantly reduced the mortality rate compared to DMSO formulations, and PBTE formulations

Q: What about the “CTL response, specific lysis” value (WEHI-164.13 cells; vehicle 13%, untreated 44%) of the same molecule?
A: 78%

Q: What about the CTL activity (WEHI-164.13 cells; Tumor stimulus) of the same molecule?
A: ++

Q: And the “time of complete conversion to B11” value ([5]; 37° C., rat plasma)?
A: ≤ 2 h

Q: What about the “conversion to B11 in heat-inactivated plasma” value ([5]; rat, 15 min at 60° C.) of the same molecule?
A: does not occur

Q: What about the “time by which A10 completely converted and undetectable” value [6] of the same molecule?
A: ≤ 1 h

Q: And the “autophosphorylation of the EGF receptor” value [7]?
A: dose dependently, inhibited; also recorded: inhibit EGF induced EGF receptor autophosphorylation
